This note sets out measurements from patent publication EP0383941B1, “ULTRAVIOLET ABSORBING COSMETIC” (priority 1988, dated 1990).

≈ marks a conversion by molar mass, not a printed value.

Series [1] in a line: Measurement of water resistance (hot water treatment of aqueous suspension, extinction coefficient and TG-DTA). In kind it is physicochemical. The note with it: for Water resisting stability: 10 % by weight aqueous suspension, 80°C for 2 hours, change of molecular extinction coefficient in λmax; for Change of TG-DTA: before and after hot water treatment (80°C, 2 hours). The protocol:
Fifty milliliters each of aqueous suspensions containing 10 % by weight of a cyclic imino ester and a comparative sample, respectively was prepared, and allowed to stand in a constant temperature bath of 80°C for 2 hours.
Then, 50 ml of isopropyl alcohol was added thereto, and the water and the solvent were removed using a rotary evaporator, and the residue was taken out.
This residue was measured for molecular extinction coefficient in λmax according to a similar manner to Example 1, and its change was used as a measure of water resistance. [formula] Further, the samples before and after hot water treatment were measured for TG-DTA, and its change was examined.

Series [2] is described as follows: Measurement of ultraviolet ray-absorbing ability (spectrophotometer). Type of series: physicochemical. To be noted: 1,1,2,2-tetrachloroethane, 5x10⁻⁴ g/100 ml, optical path length 1 cm; for E 1%, 1cm: at λmax. The protocol: There were measured ultraviolet ray-absorbing ability of the cyclic imino esters used in accordance with the invention and a commercially available known ultraviolet absorber (4-t-butyl-4'-methoxy-dibenzoylmethane).
The measurement was carried out using 1,1,2,2-tetrachloroethane as a solvent and Hitachi 330 type spectrophotometer under the conditions of an ultraviolet absorber concentration of 5x10⁻⁴ g/100 ml and an optical path length of 1 cm.

The nature of series [3]: Measurement of solubility in water, alcohols and oily cosmetic bases. In kind it is physicochemical. To be noted: 15°C.
Series [4] has as its system skin. Nature of the series: Allergic contact dermatitis test (Guinea Pig Maximization Test). To be noted: in vivo. Set-up: species or system white female guinea pigs. As for the experimental part: Method: This experiment was carried out as follows based on "Guinea Pig Maximization Test" (Magnusson, B. & Klingman, A. M: Usefulness of guinea pig tests for detection of contact sensitizers, In Advances in Modern Toxicology. Vol 4, pp 551-560 Hemisphere Publishing Co., Washington & London, 1977) 1) The fur on the scapula of white female guinea pigs weighing 300 to 500 g was cut in an area of 4 x 6 cm. 2) Each sample was intradermally injected into a guinea pig at the positions (1), (2) and (3) shown in Figure 1 with • (1) 0.1 ml of Freund's complete adjuvant alone; • (2) 0.1 ml of test substance alone; or • (3) sample w/o emulsified with 0.1 ml of Freund's complete adjuvant 3) The fur at the sites was cut one week after the intradermal injection, and a […] test substance, 10 % sodium lauryl sulfate (vaseline base), was applied thereon. 4) Vaseline containing 25 % by weight of the test substance was spread on a filter paper of 2 x 4 cm and occlusive pasting was conducted for 48 hours. 5) The fur at the side of the body of a guinea pig shown at (4) in Figure 1 was cut in an area of 5 x 5 cm two weeks after the occlusive pasting. 6) The test substance was applied onto a filter paper of 2 x 2 cm, and occlusive pasting was conducted for 24 hours. 7) Measurement was carried out according to the following criterion: […]

The test system of series [5] is skin. The series is described as follows: Contact photosensitization (Adjuvant-Strip method). Type of series: in vivo, Hartley white guinea pigs. To be noted: for Contact photosensitization (result in words): Adjuvant-Strip method. The protocol: (1) Hartley white guinea pigs weighing 370 to 420 g were used. (2) The fur at the cervical part of guinea pigs was cut by an eletric hair clipper, and the part was further shaved with an electric razor. (3) A section of 2 x 4 cm was set at the cervical part, and 0.1 ml portions of Freund's complete adjuvant w/o emulsified with sterilized distilled water were intradermally injected at the four corners. (4) The skin of the section of 2 x 4 cm was subjected to stripping with cellophane tape to cause light erythema. […] (6) After the application, 6 lamps in total, namely 3 sunlamps (Toshiba FL-40SE30) and 3 black lights (Toshiba FL-40SBLB) were arranged in parallel, 70 minutes irradiation was carried out at a distance of 10 cm from the light sources. Total energy of the irradiation at this time was 12.0 J/cm². (7) The procedures (4), (5) and (6) were repeated 5 times every other day. […] (9) 24 Hours after the epilation, 4 sections each of 1.5 cm x 1.5 cm were set in two rows using the medium line as a symmetry axis. (10) This site was coated with the test substance and irradiated for 70 minutes at a distance of 10 cm from 6 black lights. […] (11) Judgement was made 24 and 48 hours after the irradiation according to the following criterion: [Judgement criterion]

Series [6] concerns skin. Nature of the series: Primary irritation to the skin. Type of series: in vivo, white rabbits. To be noted: for Formation of erythema or eschar: animals judged +: grade + (Well defined erythema). The protocol:
This experiment was carried out according to the following method. • 1) Eight white rabbits (weighing 2.0 to 3.0 kg) whose fur on the back was cut are grouped into two groups each consisting of 4 animals. Animals of one group (blank) were fixed as they were in braces and those of the other group were fixed in braces after excoriation at the site to be tested. • 2) Vaseline base containing 25 % by weight of a test substance was applied onto a lint cloth, and the resulting lint cloth was stuck on the surface of skin. • 3) Whole body of the rabbit was wrapped with moisture-proof rubber for dental use to prevent movement of the stuck lint cloth and at the same time evaporation of volatile substance. • 4) Twenty-four hours thereafter the lint cloth was removed and the test site was observed. Second and third observations are made 48 and 72 hours thereafter, respectively. The average of evaluation after 24 and 72 hours was calculated as a final evaluation point. • 5) Evaluation was made by independently judging formation of erythema and eschar, and edema, specifically according to the following criteria.

The next series deals with Microorganisms. Nature of the series: Mutagenicity test using microorganisms. In kind it is cell-based. To be noted: test on mutagenicity using microorganisms. As for the experimental part: This experiment was carried out based on "About Test on Mutagenicity Using Microorganisms", a notification of the Director of the Standard Bureau, the Ministry of Labor, Japan dated May 18, 1985.

Setting [7] is: 3 = Erythema in middle to heavy degree, guinea pigs.
Setting [8] is: Vaseline base containing 25 % by weight, 4 rabbits.
Setting [9] is: grade +++ (Severe erythema to slight formation of eschar), Vaseline base containing 25 % by weight, 4 rabbits.

For the compound `O=c1oc(-c2ccc3cc(-c4nc5ccccc5c(=O)o4)ccc3c2)nc2ccccc12`, the Water resisting stability in series [1] was 96.7%.

Consider `O=c1oc(-c2ccc(-c3ccc(-c4nc5ccccc5c(=O)o4)cc3)cc2)nc2ccccc12`, for which, in series [2], the “λmax (maximum absorption wavelength)” value is reported as 348 nm; the “λs (absorption intiation wavelength)” value was found to be 395 nm; the “E 1%, 1cm” value was found to be 1300. In addition, in series [1], the Water resisting stability is reported as 97.6%.

The compound `COc1ccc(C(=O)CC(=O)c2ccccc2C(=O)O)cc1` [4-methoxy-2'-sodium carboxylate-dibenzoylmethane, reference compound] showed a Water resisting stability in series [1] of 52.0%.

Take `COc1ccc(C(=O)CC(=O)c2ccc(C(C)(C)C)cc2)cc1` [4-t-butyl-4'-methoxydibenzoylmethane, 4-t-butyl-4'-methoxy-dibenzoylmethane]: the “λmax (maximum absorption wavelength)” value in series [2] was determined as 360 nm. Further, the “λs (absorption intiation wavelength)” value in series [2] is 400 nm. Further, the “E 1%, 1cm” value in series [2] amounted to 1040. In series [1], this compound returned a Water resisting stability of 89.4%. In addition, the “Change of TG-DTA” value in series [1] is “genera-tion of subpeak”. Also, the solubility (usually how much of the substance goes into solution per volume) turned out to be 0.0002 mg/mL (≈ 0.000644 mM) in series [3] (Water); 96 mg/mL (≈ 309 mM) in series [3] (organic solvent or mixture, Castor oil); 16 mg/mL (≈ 51.5 mM) in series [3] (organic solvent or mixture, Ethanol); 2.5 mg/mL (≈ 8.05 mM) in series [3] (organic solvent or mixture, Glycerin); 53 mg/mL (≈ 171 mM) in series [3] (organic solvent or mixture, Isopropyl myristate); 8.5 mg/mL (≈ 27.4 mM) in series [3] (organic solvent or mixture, Light liquid paraffin). In addition, the solubility in series [3] (organic solvent or mixture, Olive oil) worked out at 19 mg/mL (≈ 61.2 mM).

For `O=c1oc(-c2ccc(-c3nc4ccccc4c(=O)o3)cc2)nc2ccccc12` [A, 2,2'-p-phenylenebis(3,1-benzoxazin-4-one)], in series [2], the “λmax (maximum absorption wavelength)” value turned out to be 350 nm; the “λs (absorption intiation wavelength)” value is reported as 385 nm; the “E 1%, 1cm” value is given as 1270. In addition, in the series with skin [4], the “Judgement 0 (animals)” value is reported as 4/4, the “Judgement 1 (animals)” value is 0/4 and the “Judgement 2 (animals)” value was 0/4. The “Contact photosensitization (result in words)” value (“Contact photosensitization” for short) with skin [5] (guinea pigs) was “not observed at all”. In the series with skin [5] (guinea pig, in vivo), the “Formation of erythema, judgement 0 (animals)” value was 10/10; the “Formation of erythema, judgement 1 (animals)” value was 0/10; the “Formation of erythema, judgement 2 (animals)” value is 0/10; the “Formation of erythema, judgement 3 (animals)” value was 0/10. In the series on skin [6] (rabbit, in vivo), the “Formation of edema (animals)” value is given as 0/4, the “Formation of erythema or eschar: animals judged ++” value is 0/4, the “Formation of erythema or eschar: animals judged +++” value (shortened to “Formation … animals judged +++”) was 0/4 and the “Formation of erythema or eschar: animals judged -” value is recorded as 4/4. The “Formation of erythema or eschar: animals judged ±” value in the series on skin [6] (rabbit, in vivo) is on record as 0/4. Besides, in series [1], the Water resisting stability was determined as 96.9% and the “Change of TG-DTA” value is recorded as “no change”. Also, the Mutagenicity entry in the series on Microorganisms was “No mutagenicity was observed”.

Regarding `O=c1oc(-c2ccc(-c3ccc(-c4nc5ccccc5c(=O)o4)cc3)cc2)nc2ccccc12` [B, 2,2'-(4,4'-diphenylene)bis(3,1-benzoxazin-4-one)], the “Formation of erythema, judgement 3 (animals)” value in the series with skin [5] (setting [7]) is on record as “Same as left”. The “Contact photosensitization” value in the series with skin [5] (guinea pigs) is given as “not observed at all”. For the same compound, in the series on skin [6] (setting [8]), the “Formation of edema (animals)” value was 0/4 and the “Formation of erythema or eschar: animals judged +” value is listed as “Same as left”. Moreover, the “Formation … animals judged +++” value in the series with skin [6] (setting [9]) is on record as “Same as left”. In addition, in the series on Microorganisms, the Mutagenicity entry is “No mutagenicity was observed”.

With `O=c1oc(-c2ccc3cc(-c4nc5ccccc5c(=O)o4)ccc3c2)nc2ccccc12` [C, 2,2'-(2,6-naphthylene)bis(3,1-benzoxazin-4-one)], in series [2], the “λmax (maximum absorption wavelength)” value amounted to 354 nm; the “λs (absorption intiation wavelength)” value stood at 400 nm; the “E 1%, 1cm” value is 1070. In the series with skin [5] (0 = No erythema, 24 and 48 hours after irradiation, 10.2 J/cm², guinea pigs), the “Formation of erythema, judgement 0 (animals)” value was 9/10. For the same compound, the “Formation of erythema, judgement 1 (animals)” value in the series on skin [5] (1 = Erythema in very light degree, guinea pigs) is recorded as 1/10. In addition, in the series with skin [5] (setting [7]), the “Formation of erythema, judgement 3 (animals)” value is “Same as left”. Moreover, the “Contact photosensitization” value in the series on skin [5] (guinea pigs) is on record as “Very slight contact photosensitization was observed”. In addition, in the series on skin [6] (setting [8]), the “Formation of edema (animals)” value is recorded as 0/4 and the “Formation of erythema or eschar: animals judged +” value is reported as “Same as left”. In addition, the “Formation … animals judged +++” value with skin [6] (setting [9]) is recorded as “Same as left”. In addition, the Mutagenicity entry with Microorganisms is “No mutagenicity was observed”.
